# Test results from US4352885A, “Preparation of a novel NADP linked alcohol-aldehyde/ketone oxidoreductase from thermophilic anaerobic bacteria for analytical and commercial use” (Wisconsin Alumni Research Foundation, priority 1980, dated 1982).
# T1: NADP linked alcohol dehydrogenase (alcohol-aldehyde/ketone oxidoreductase) (Thermoanaerobacter brockii, UniProt P14941)
# T1 construct: of the T. brockii enzyme preparation with various alcohols and carbonyl compounds; made in house; host or cells: T. brockii itself (native host; partially purified enzyme)
# T1 sequence (P14941 1-352): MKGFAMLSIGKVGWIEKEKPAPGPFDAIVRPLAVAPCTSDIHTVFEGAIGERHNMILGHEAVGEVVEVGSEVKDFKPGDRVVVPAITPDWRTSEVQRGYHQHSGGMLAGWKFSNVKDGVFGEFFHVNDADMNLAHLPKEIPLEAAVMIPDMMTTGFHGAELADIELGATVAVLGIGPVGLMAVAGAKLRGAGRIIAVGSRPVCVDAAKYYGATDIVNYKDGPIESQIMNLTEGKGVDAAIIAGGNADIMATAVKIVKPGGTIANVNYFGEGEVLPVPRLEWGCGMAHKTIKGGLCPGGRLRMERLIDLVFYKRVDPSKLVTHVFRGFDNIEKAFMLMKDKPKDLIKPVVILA
# T2: NADP linked alcohol dehydrogenase (secondary alcohol dehydrogenase activity) (Thermoanaerobacter brockii, UniProt P14941)
# T2 construct: The NADP linked alcohol dehydrogenase derived from T. brockii can be immobilized; made in house; host or cells: T. brockii itself (native host)
# T2 sequence (P14941 1-352): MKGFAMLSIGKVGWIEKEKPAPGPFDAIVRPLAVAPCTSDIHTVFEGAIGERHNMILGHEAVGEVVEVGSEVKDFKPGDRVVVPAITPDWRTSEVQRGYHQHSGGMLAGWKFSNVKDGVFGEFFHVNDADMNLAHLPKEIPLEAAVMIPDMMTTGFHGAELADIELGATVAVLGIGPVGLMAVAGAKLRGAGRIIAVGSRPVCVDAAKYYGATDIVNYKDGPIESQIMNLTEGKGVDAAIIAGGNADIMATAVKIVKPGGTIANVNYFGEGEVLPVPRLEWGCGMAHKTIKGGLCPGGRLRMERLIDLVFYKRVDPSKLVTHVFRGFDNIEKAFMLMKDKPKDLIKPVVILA
# B1: immobilized enzyme system: T. brockii alcohol dehydrogenase immobilized on sepharose 4B-CnBr, packed in a flow cell (protein, UniProt P14941 1-352, looked up)
# NADP-dependent isopropanol …: MKGFAMLSIGKVGWIEKEKPAPGPFDAIVRPLAVAPCTSDIHTVFEGAIGERHNMILGHEAVGEVVEVGSEVKDFKPGDRVVVPAITPDWRTSEVQRGYHQHSGGMLAGWKFSNVKDGVFGEFFHVNDADMNLAHLPKEIPLEAAVMIPDMMTTGFHGAELADIELGATVAVLGIGPVGLMAVAGAKLRGAGRIIAVGSRPVCVDAAKYYGATDIVNYKDGPIESQIMNLTEGKGVDAAIIAGGNADIMATAVKIVKPGGTIANVNYFGEGEVLPVPRLEWGCGMAHKTIKGGLCPGGRLRMERLIDLVFYKRVDPSKLVTHVFRGFDNIEKAFMLMKDKPKDLIKPVVILA
# modifications: immobilized on CNBr-Sepharose 4B
# B2: NADP linked alcohol dehydrogenase (alcohol-aldehyde/ketone oxidoreductase) (Thermoanaerobacter brockii) (protein)
# chain: MKGFAMLSIGKVGWIEKEKPAPGPFDAIVRPLAVAPCTSDIHTVFEGAIGERHNMILGHEAVGEVVEVGSEVKDFKPGDRVVVPAITPDWRTSEVQRGYHQHSGGMLAGWKFSNVKDGVFGEFFHVNDADMNLAHLPKEIPLEAAVMIPDMMTTGFHGAELADIELGATVAVLGIGPVGLMAVAGAKLRGAGRIIAVGSRPVCVDAAKYYGATDIVNYKDGPIESQIMNLTEGKGVDAAIIAGGNADIMATAVKIVKPGGTIANVNYFGEGEVLPVPRLEWGCGMAHKTIKGGLCPGGRLRMERLIDLVFYKRVDPSKLVTHVFRGFDNIEKAFMLMKDKPKDLIKPVVILA
# notes: of the T. brockii enzyme preparation with various alcohols and carbonyl compounds; made in house; host or cells: T. brockii itself (native host; partially purified enzyme)
# Molecular target: T1, NADP linked alcohol dehydrogenase (alcohol-aldehyde/ketone oxidoreductase)
# Test: Specific activity of partially purified NADP linked alcohol dehydrogenase with alcohols and carbonyl compounds (absorbance at 334 nm)
# Type: biochemical, Thermoanaerobium brockii
# Conditions: Tris-Cl buffers; acetaldehyde reduction or sec-butanol oxidation
row,Molecule,Optimum pH
1,"CC=O [CH3 CHO, acetaldehyde]",7.8
2,"CCC(C)O (centres unmarked) [CH3 CH2 CH(OH)CH3, sec-butanol]",7.8-9.0

# Same assay, conditions: as coenzymes instead of NADP/NADPH
row,Molecule,Activity with the substance as coenzyme
1,"NC(=O)C1=CN([C@@H]2O[C@H](COP(=O)(O)OP(=O)(O)OC[C@H]3O[C@@H](n4cnc5c(N)ncnc54)[C@H](O)[C@@H]3O)[C@@H](O)[C@H]2O)C=CC1 [NADH, reference compound]",No activity
2,"NC(=O)c1ccc[n+]([C@@H]2O[C@H](COP(=O)([O-])OP(=O)(O)OC[C@H]3O[C@@H](n4cnc5c(N)ncnc54)[C@H](O)[C@@H]3O)[C@@H](O)[C@H]2O)c1 [NAD, reference compound]",No activity

# Same assay, conditions: coenzymes
row,Molecule,Apparent Michaelis constant KM (coenzymes)
1,"NC(=O)C1=CN([C@@H]2O[C@H](COP(=O)(O)OP(=O)(O)OC[C@H]3O[C@@H](n4cnc5c(N)ncnc54)[C@H](OP(=O)(O)O)[C@@H]3O)[C@@H](O)[C@H]2O)C=CC1 [NADPH, reference compound]",in the micromolar range
2,"NC(=O)c1ccc[n+]([C@@H]2O[C@H](COP(=O)([O-])OP(=O)(O)OC[C@H]3O[C@@H](n4cnc5c(N)ncnc54)[C@H](OP(=O)(O)O)[C@@H]3O)[C@@H](O)[C@H]2O)c1 [NADP, Nicotinamide adenine dinucleotide phosphate]",in the micromolar range

# Same assay, conditions: saturating substrate (0.2-0.5 M alcohol or ketone, 10 mM acetaldehyde); 0.5 mM NADP or 0.2 mM NADPH; 0.1 M Tris-Cl pH 7.8
row,Molecule,Activity V/mg. at 60° C. [μ Mole/Min./Mg Protein]
1,O=C1CC2CCC1C2 (centres unmarked),4.9
2,"CC=O [CH3 CHO, acetaldehyde]",7.8
3,CCCO [CH3 CH2 CH2 OH],3.6
4,"CCC(C)O (centres unmarked) [CH3 CH2 CH(OH)CH3, sec-butanol]",78.0
5,"CCC(C)=O [CH3 COCH2 CH3, butanone]",7.6
6,"CC(C)=O [CH3 COCH3, acetone]",10.4
7,OC1CCCCC1 [Cyclohexanol],12.2
8,2-Cyclohexanone,4.9
9,O=C1CCCCCCC1 [Cyclooctanone],0
10,CC(C)CO [CH3 CH2 (CH3)CH2 OH],3.1
11,O=C1CCCC1 [Cyclopentanone],6.0
12,CCC(C)CO (centres unmarked) [CH3 CH2 CH2 (CH3)CH2 OH],3.0
13,CO [CH3 OH],0
14,CC1CCCC(=O)C1 (centres unmarked) [3-Methyl Cyclohexanone],2.0
15,O=C1CCCCCC1 [Cycloheptanone],3.0
16,CC1CCCCC1=O (centres unmarked) [2-Methyl Cyclohexanone],6.0
17,CC(O)CC(C)O (centres unmarked) [CH3 CH(OH)CH2 CH(OH)CH3],2.6
18,"CC(C)O [CH3 CH(OH)CH3, isopropanol]",59.0
19,CCCCO [CH3 CH2 CH2 CH2 OH],4.1
20,CC(=O)C1CC1 [Methyl cyclopropyl ketone],0.5
21,CC1CCC(=O)CC1 [4-Methyl Cyclohexanone],0.5
22,O=C1CCCCC1 [Cyclohexanone],6.2
23,C=CC(O)CC (centres unmarked) [CH2CHCH(OH)CH2 CH3],65.0
24,CCO [CH3 CH2 OH],3.2
25,CCCCCO [CH3 CH2 CH2 CH2 CH2 OH],0.9

# Same assay, conditions: tested as substrates
row,Molecule,Reaction as substrate
1,C[C@H](O)C(=O)O [L-lactic acid],did not react
2,OCC(O)CO [glycerol],did not react

# Molecular target: T2, NADP linked alcohol dehydrogenase (secondary alcohol dehydrogenase activity)
# Test: Effects of metal ions, complexing agents and thiol reagents on the enzyme
# Type: biochemical, Thermoanaerobium brockii
# Conditions: not given
# Protocol: Metal ions, complexing agents and thiol reagents had the following effects.
# Each of the above studies were performed at 40° C.
row,Molecule,Inhibition of activity by complexing agents
1,"O=C(O)CN(CCN(CC(=O)O)CC(=O)O)CC(=O)O [EDTA, ethylenediamine-tetraacetic acid, reference compound]",did not significantly inhibit activity
2,Oc1cccc2cccnc12 [8-hydroxyquinoline],did not significantly inhibit activity

# Same assay, conditions: 0.05 mM; 40° C.
row,Molecule,Reaction of thiol reagent with the enzyme (inhibition)
1,"O=C(O)c1cc[c]([Hg][Cl])cc1 [PCMB, parachloromercuricbenzoate]",reacted instantly

# Same assay, conditions: 1 mM; 40° C.
row,Molecule,Activation or inhibition by metal salts
1,[Ca+2].[Cl-].[Cl-] [CaCl2],no significant activation or inhibition
2,[Cl][Cu][Cl] [CuCl2],no significant activation or inhibition
3,[Cl-].[Cl-].[Mg+2] [MgCl2],no significant activation or inhibition
4,[Cl-].[Cl-].[Zn+2] [ZnCl2],no significant activation or inhibition

# Same assay, conditions: 1 mM; slow (15 min.); 40° C.
row,Molecule,Inactivation of the enzyme
1,"CCN1C(=O)C=CC1=O [NEM, N-ethylmaleimide]",inactivated the enzyme

# Same assay, conditions: 2 mM; 40° C.; read-out: Inhibitory effect on secondary alcohol dehydrogenase activity
row,Molecule,inhibition at 2000 µM [%]
1,c1cnc2c(c1)ccc1cccnc12 [orthophenanthroline],15 to 20

# Same assay, conditions: 5 mM DTT, within a few minutes; 1 mM ZnSO4; 40° C.
row,Molecule,Reactivation of PCMB inhibited enzyme
1,"O[C@H](CS)[C@H](O)CS (racemic) [DTT, dithiothreitol]",Complete reversal of the PCMB inhibition
2,O=S(=O)([O-])[O-].[Zn+2] [ZnSO4],necessary for complete reactivation

# System: not listed separately
# Test: Thermostability and storage stability of the alcohol dehydrogenase
# Type: physicochemical, Thermoanaerobium brockii
# Conditions: millimolar concentrations
# Protocol: The immobilized alcohol dehydrogenase of example 2 was packed in a small flow cell which allowed amperometric measurement of NAPDH concentration, using a glossy carbon and Ag/Cl electrode with 0.8 volt potential difference. A soltuion containing 0.05 mM NADP and varying concentrations of sec. butanol 10-100 micro molar were passed through the cell and gave a signal which depended on the concentration of alcohol. Alternatively, solutions that contained 10 mM NADPH and varying concentrations of acetone produced signals which decreased linearly with increasing concentrations of acetone at 0-200 mM. Potassium phosphate buffer at 500 mM and pH 7.5 was used in these experiments. The immobilized enzyme system for measurement of ketones and alcohols was stable for 2 weeks at room temperature.
row,Molecule,Effect on thermostability of the enzyme
1,"O=C(O)CN(CCN(CC(=O)O)CC(=O)O)CC(=O)O [EDTA, ethylenediamine-tetraacetic acid, reference compound]",did not decrease thermostability

# Same assay, conditions: room temperature; immobilized on sepharose in flow cell
row,Molecule,Time stable [weeks]
1,B1,2

# System: T. brockii cultures
# Test: Reduction of ketones by T. brockii cultures
# Type: cell-based, Thermoanaerobium brockii
# Conditions: 0.5% ketone in TYEG medium; 60° C.; 15 hours incubation
# Protocol: T. brockii was incubated at 60° C. in anaerobic culture tubes containing the previously described TYEG medium supplemented with 0.5% acetone or butanone. More than 50% of each ketone was converted to the corresponding alcohol after 15 hours incubation. Growth of the organism ceased once the pH fell below 5.0. The reaction is indicated in FIG. 1 when acetone is substituted for glucose to produce the corresponding secondary isopropanol.
row,Molecule,Ketone converted to the corresponding alcohol
1,"CCC(C)=O [CH3 COCH2 CH3, butanone]",More than 50%
2,"CC(C)=O [CH3 COCH3, acetone]",More than 50%

# Substrate: CCC(C)O
# Test: purified protein, by the assay type
# Conditions: other: substrate concentration giving half-maximal velocity; pH 7.8; 40.0 °C
row,Molecule,Km [µM]
1,B2,500

# Substrate: CC=O
# Test: Specific activity of partially purified NADP linked alcohol dehydrogenase with alcohols and carbonyl compounds (absorbance at 334 nm)
# Type: biochemical, Thermoanaerobium brockii
# Conditions: other: substrate concentration giving half-maximal velocity; pH 7.8; 40.0 °C
row,Molecule,Km [µM]
1,B2,150
